The source made the active and inactive calls. Non-standard residues stand in square brackets, D forms with d. Residues, ends and D or L forms follow the SMILES beside them. ξ: configuration not given here. Pen = CC(C)(S)[C@H](N)C(=O)O; ξL = CC(C)CC(N)C(=O)O
Columns and labels:
INS1 = assay: beta cell apoptosis inhibitors, cytokine rescue, dose response, luminescence, retest (AID 449756); assay type: functional, cell-based; details: Rattus norvegicus;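 note: cell death triggered by IL-1 beta plus TNF-alpha plus IFN-gamma mixture; protective hits raise ATP signal compared with cytokine alone wells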
[1] = target: T1, Heat shock factor protein 1 (Mus musculus, UniProt P38532); assay: HSF1 potentiators in luciferase reporter cells, confirmation, cell-based, NIH3T3, luminescence, dose retest (AID 435004); assay type: functional;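 note: stress induced by proteasome inhibitor MG132 added 30 min after compound; luciferase reporter driven by HSF1 response element in NIH3T3 cells; actives raise luminescence as potentiators of the MG132 stress response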
T1 sequence (P38532 whole entry): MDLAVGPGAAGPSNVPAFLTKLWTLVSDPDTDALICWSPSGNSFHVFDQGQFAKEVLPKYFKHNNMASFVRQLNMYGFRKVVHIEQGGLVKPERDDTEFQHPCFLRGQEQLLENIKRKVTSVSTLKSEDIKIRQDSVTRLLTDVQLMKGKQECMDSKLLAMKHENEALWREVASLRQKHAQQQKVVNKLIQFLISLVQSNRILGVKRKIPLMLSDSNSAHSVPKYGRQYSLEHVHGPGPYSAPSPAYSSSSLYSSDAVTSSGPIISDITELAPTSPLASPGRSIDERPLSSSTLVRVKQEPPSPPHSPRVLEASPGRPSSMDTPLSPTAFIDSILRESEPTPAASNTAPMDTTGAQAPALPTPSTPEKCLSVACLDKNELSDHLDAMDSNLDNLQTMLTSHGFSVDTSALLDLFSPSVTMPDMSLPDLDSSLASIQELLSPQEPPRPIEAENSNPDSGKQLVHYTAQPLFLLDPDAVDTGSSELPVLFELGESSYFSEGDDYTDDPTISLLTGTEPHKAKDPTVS

P388 = assay: cells; assay type: functional; details: Mus musculus
P388/ADR = assay: cells; assay type: functional; details: Mus musculus
SN12K1 = assay: cells; assay type: functional; details: Homo sapiens
[2] = target: Luciferin 4-monooxygenase (Photinus pyralis, UniProt P08659); assay: firefly luciferase enzyme inhibitors, dose response, biochemical, luminescence (AID 1891)
[3] = Luminescence Cell-Based Dose Confirmation HTS to Identify Inhibitors of Platelet Dense Granule Release. [Related pubchem assays: 1663 (Primary HTS), 1678 (Summary of Project)]; assay type: functional
H4 = assay: Luminescence Cell-Based Dose Response HTS to Identify Activators of 5'UTR Stem-Loop Driven Prion Protein mRNA Translation in H4 Neuroglioblastoma Cells. [Related pubchem assays: 1829 (Project Summary), 1814 (Primary HTS)]; assay type: functional; details: Homo sapiens
[4] = Luminescence Cell-Based Dose Response HTS to Identify Activators of Luciferase Translation or Activity in H4 […] Cells. [Related pubchem assays: 1829 (Project Summary), 1814 (Primary HTS)]; assay type: functional
[5] = Luminescence Cell-Based Dose Confirmation HTS to Identify Activators of 5'UTR Stem-Loop Driven Alpha-Synuclein mRNA Translation in H4 Neuroglioblastoma Cells. [Related pubchem assays: 1829 (Project Summary), 1814 (Primary HTS)]; assay type: functional

Luciferin 4-monooxygenase, sequence (P08659 whole entry): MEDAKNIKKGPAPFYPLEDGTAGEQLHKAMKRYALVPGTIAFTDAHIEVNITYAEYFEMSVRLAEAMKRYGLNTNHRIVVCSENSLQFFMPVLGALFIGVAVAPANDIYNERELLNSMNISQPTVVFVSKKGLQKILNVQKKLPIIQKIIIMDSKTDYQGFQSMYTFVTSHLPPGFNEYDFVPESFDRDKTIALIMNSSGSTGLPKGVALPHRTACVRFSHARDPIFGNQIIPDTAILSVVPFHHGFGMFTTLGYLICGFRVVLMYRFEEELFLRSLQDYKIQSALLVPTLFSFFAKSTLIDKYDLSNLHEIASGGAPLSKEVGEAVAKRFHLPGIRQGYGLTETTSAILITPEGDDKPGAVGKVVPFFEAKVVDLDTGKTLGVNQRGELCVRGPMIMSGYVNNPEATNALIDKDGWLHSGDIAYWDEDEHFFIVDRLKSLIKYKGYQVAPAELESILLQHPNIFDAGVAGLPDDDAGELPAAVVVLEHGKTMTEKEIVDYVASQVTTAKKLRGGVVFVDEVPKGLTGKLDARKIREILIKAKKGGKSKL

SMILES | EC50 [1] | GI50 (P388) | GI50 (P388/ADR) | GI50 (SN12K1) | further results
CN1/C(=C\C(=O)C[n+]2cccc(Br)c2)C(C)(C)c2ccccc21 | – | – | – | – | AC50 (INS1): 5.62 µM (active)
NC(=O)c1ccc(NC(=O)CC23CC4CC(CC(Br)(C4)C2)C3)cc1 | > 260 µM (inactive) | – | – | – | –
c1ccc2c(c1)SCCc1cn[nH]c1-2 | – | > 100 µM (inactive) | > 100 µM (inactive) | > 100 µM (inactive) | –
CCOC(=O)c1c(NC(=O)CSc2nc3ccccc3o2)sc(C)c1C | > 260 µM (inactive) | – | – | – | –
CCc1ccc(S(=O)(=O)NCCc2cn3ccsc3n2)s1 | – | – | – | – | EC50 [2]: > 112 µM (not active); EC50 [3]: > 112 µM (not active)
COc1cc(C)c(S(=O)(=O)N2CCN=C2c2ccccc2)cc1C | > 260 µM (inactive) | – | – | – | –
Cc1ccccc1C(=O)NCCOc1ccccc1Cl | 25.5 µM (active) | – | – | – | –
CN1N=C(C(=O)N2CCc3c([nH]c4ccccc34)C2c2ccccc2Cl)CCC1=O (stereo not drawn) | – | – | – | – | EC50 (H4): 9.56 µM (active); EC50 [4]: 10.8 µM (active); EC50 [5]: 13.2 µM (active)
Cc1ccccc1C(=O)O/N=C1\CCS(=O)(=O)c2sccc21 | 0.943 µM (active) | – | – | – | –
CC(=O)OCC1OC(Nc2ncc(-c3ccc(C)cc3)s2)C(OC(C)=O)C(OC(C)=O)C1OC(C)=O (stereo not drawn) | – | 28.4 µM (inactive) | 25.2 µM (inactive) | 46.8 µM (inactive) | –
Cc1ccccc1N(C(=O)c1csnn1)C(C(=O)NC(C)(C)C)c1ccncc1 (stereo not drawn) | > 260 µM (inactive) | – | – | – | –
Cc1ccc(N2C(=O)CCC2(C#N)c2ccccc2)cc1 (stereo not drawn) | > 260 µM (inactive) | – | – | – | –
CCOC(=O)C(C)/C(C)=N/NC(=O)c1cc2ccccc2cc1O (stereo not drawn) | – | – | – | – | AC50 (INS1): 14.8 µM (active)
COc1cc2cc(CN(CCO)S(=O)(=O)c3ccccc3Cl)c(O)nc2cc1OC | – | – | – | – | EC50 [2]: > 112 µM (not active); EC50 [3]: > 112 µM (not active)
CCOC(=O)CNC(=O)NC12CC3CC(CC(C3)C1)C2 | – | 63.8 µM (inactive) | 225 µM (inactive) | 141 µM (inactive) | –
CSCC[C@H](NC(=O)C(CC(C)C)NC(=O)[C@H](Cc1c[nH]cn1)NC(=O)CNC(=O)[C@@H](NC(=O)[C@@H](C)NC(=O)[C@H](Cc1c[nH]c2ccccc12)NC(=O)[C@H](CCC(N)=O)NC(=O)[C@@H](N)CC(N)=O)C(C)(C)SC)C(N)=O (stereo partly drawn) (H-NQW[dA][Pen](Me)GH[ξL]M-NH2) | – | > 100 µM (inactive) | > 100 µM (inactive) | > 100 µM (inactive) | –
CCCN1CCC(=O)N([C@H](CSc2ccc(C)cc2)c2ccccc2)CC1 | – | – | – | – | EC50 (H4): 7.04 µM (active); EC50 [4]: 5.58 µM (active); EC50 [5]: 8.36 µM (active)
COc1ccccc1CNC(=O)c1ccc(NS(=O)(=O)c2cccs2)cc1 | > 260 µM (inactive) | – | – | – | –
CCOC(=O)/C=C/c1c[nH]c(C(=O)OCC)c1 | – | > 100 µM (inactive) | > 100 µM (inactive) | > 100 µM (inactive) | –
C[S+](C)CC1OC(n2cnc3c(N)ncnc32)C(O)C1O (stereo not drawn) | – | > 225 µM (inactive) | > 22.5 µM (inactive) | > 225 µM (inactive) | –
CN(C)CCNC(=O)c1cc(Cl)cc2cc3ccccc3nc12 | – | 0.128 µM (active) | 0.0622 µM (active) | 0.378 µM (active) | –
CCn1c(=O)cc(N2CCN(Cc3ccccc3)CC2)[nH]c1=O | – | – | – | – | EC50 [2]: > 112 µM (not active); EC50 [3]: > 112 µM (not active)

— ChEMBL document CHEMBL1201862, “PubChem BioAssay data set” (2004)
